Assay results reported in the NIST ThermoML archive (doi:10.1021/je500380x).
± gives the expanded uncertainty stated by the source.

Columns and labels:
[1] = 298.15 K, 101.33 kPa, Liquid; for viscosity: Falling or rolling sphere viscometry; for mass density: Vibrating tube method
[2] = mn = molality of the nth substance listed, in mol/kg; details: 100 kPa, Liquid, m2 = 0; for viscosity: Falling or rolling sphere viscometry; for mass density: Vibrating tube method

viscosity [1] [mPa·s] | mass density [1] [kg/m3] | viscosity ([2]; 293.15 K) [mPa·s] | mass density ([2]; 293.15 K) [kg/m3] | viscosity ([2]; 298.15 K) [mPa·s] | mass density ([2]; 298.15 K) [kg/m3] | viscosity ([2]; 303.15 K) [mPa·s] | mass density ([2]; 303.15 K) [kg/m3] | viscosity ([2]; 308.15 K) [mPa·s] | mass density ([2]; 308.15 K) [kg/m3] | viscosity ([2]; 313.15 K) [mPa·s] | mass density ([2]; 313.15 K) [kg/m3] | viscosity ([2]; 318.15 K) [mPa·s] | mass density ([2]; 318.15 K) [kg/m3] | viscosity ([2]; 323.15 K) [mPa·s] | mass density ([2]; 323.15 K) [kg/m3] | Structure (SMILES)
1.083 ± 0.013 | 785.339 ± 0.13 | – | – | – | – | – | – | – | – | – | – | – | – | – | – | CCO [ethanol]
– | – | 1.189 ± 0.015 | 789.64 ± 0.15 | 1.083 ± 0.013 | 785.34 ± 0.15 | 0.989 ± 0.012 | 781.03 ± 0.15 | 0.905 ± 0.011 | 776.68 ± 0.16 | 0.831 ± 0.01 | 772.29 ± 0.16 | 0.765 ± 0.009 | 767.86 ± 0.16 | 0.706 ± 0.009 | 763.38 ± 0.16 | CCO [ethanol] + CCC(=O)OCCN1CCNCC1
0.559 ± 0.011 | 786.671 ± 0.13 | – | – | – | – | – | – | – | – | – | – | – | – | – | – | CO [methanol]
– | – | 0.595 ± 0.007 | 791.38 ± 0.15 | 0.559 ± 0.007 | 786.67 ± 0.15 | 0.527 ± 0.007 | 781.95 ± 0.15 | 0.498 ± 0.006 | 777.2 ± 0.16 | 0.471 ± 0.006 | 772.43 ± 0.16 | 0.448 ± 0.006 | 767.62 ± 0.16 | 0.428 ± 0.005 | 762.77 ± 0.16 | CO [methanol] + CCC(=O)OCCN1CCNCC1
0.887 ± 0.012 | – | – | – | – | – | – | – | – | – | – | – | – | – | – | – | O [water]
– | – | 0.994 ± 0.012 | – | 0.887 ± 0.011 | – | 0.799 ± 0.01 | – | 0.726 ± 0.009 | 994.07 ± 0.11 | 0.665 ± 0.008 | – | 0.614 ± 0.008 | – | 0.567 ± 0.007 | – | O [water] + CCC(=O)OCCN1CCNCC1
